Assay results from PubChem BioAssay AID1963960 (Molecular Pharmacology Branch, DTP, NCI, 2024).

Test system: MDA-MB-468 spheroids with HUVEC/MSC, viability
Assay: Anticancer human tumor MDA-MB-468 cell line growth inhibition [PI3K];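 note: spheroids exposed to agents for seven days before readout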;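 for viability, T/C: 100% = DMSO vehicle control viability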
Conditions: for IC50: curve of first compound; for viability, T/C: stronger effect = lower value
Outline: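 Spheroid viability read-out. Co-cultures contained the tumor line plus HUVEC and human MSCs. Each agent was paired with a PI3K inhibitor (inavolisib, alpelisib, duvelisib, copanlisib) across half-log dilutions starting at clinical Cmax, or at 10 microM when Cmax was unknown.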

Cn1cnc2c(F)c(Nc3ccc(Br)cc3Cl)c(C(=O)NOCCO)cc21 + CC(Nc1ncnc2nc[nH]c12)c1cc2cccc(Cl)c2c(=O)n1-c1ccccc1
IC50 (second compound 0.0316 µM): > 3 µM | IC50 (second compound 0.1 µM): > 3 µM | IC50 (second compound 0.316 µM): > 3 µM | IC50 (second compound 1 µM): > 3 µM | IC50 (second compound 3.16 µM): 1.96 µM | IC50 (second compound 10 µM): < 0.00949 µM | viability, T/C (second compound 0.0316 µM, first compound 0.00949 µM): 88.8% | viability, T/C (second compound 0.0316 µM, first compound 0.03 µM): 90% | viability, T/C (second compound 0.0316 µM, first compound 0.0949 µM): 82.5% | viability, T/C (second compound 0.0316 µM, first compound 0.3 µM): 92.8% | viability, T/C (second compound 0.0316 µM, first compound 0.949 µM): 81.8% | viability, T/C (second compound 0.0316 µM, first compound 3 µM): 57.5% | viability, T/C (second compound 0.1 µM, first compound 0.00949 µM): 77% | viability, T/C (second compound 0.1 µM, first compound 0.03 µM): 86.9% | viability, T/C (second compound 0.1 µM, first compound 0.0949 µM): 101% | viability, T/C (second compound 0.1 µM, first compound 0.3 µM): 89.1% | viability, T/C (second compound 0.1 µM, first compound 0.949 µM): 86.1% | viability, T/C (second compound 0.1 µM, first compound 3 µM): 58.4% | viability, T/C (second compound 0.316 µM, first compound 0.00949 µM): 85.2% | viability, T/C (second compound 0.316 µM, first compound 0.03 µM): 83.8% | viability, T/C (second compound 0.316 µM, first compound 0.0949 µM): 75.6% | viability, T/C (second compound 0.316 µM, first compound 0.3 µM): 92.5% | viability, T/C (second compound 0.316 µM, first compound 0.949 µM): 90.3% | viability, T/C (second compound 0.316 µM, first compound 3 µM): 60.7% | viability, T/C (second compound 1 µM, first compound 0.00949 µM): 63.4% | viability, T/C (second compound 1 µM, first compound 0.03 µM): 66.1% | viability, T/C (second compound 1 µM, first compound 0.0949 µM): 76% | viability, T/C (second compound 1 µM, first compound 0.3 µM): 73.9% | viability, T/C (second compound 1 µM, first compound 0.949 µM): 67.6% | viability, T/C (second compound 1 µM, first compound 3 µM): 58.8% | viability, T/C (second compound 3.16 µM, first compound 0.00949 µM): 58.2% | viability, T/C (second compound 3.16 µM, first compound 0.03 µM): 58.5% | viability, T/C (second compound 3.16 µM, first compound 0.0949 µM): 55.8% | viability, T/C (second compound 3.16 µM, first compound 0.3 µM): 54.3% | viability, T/C (second compound 3.16 µM, first compound 0.949 µM): 66% | viability, T/C (second compound 3.16 µM, first compound 3 µM): 37.2% | viability, T/C (second compound 10 µM, first compound 0.00949 µM): 43.3% | viability, T/C (second compound 10 µM, first compound 0.03 µM): 41.2% | viability, T/C (second compound 10 µM, first compound 0.0949 µM): 37.6% | viability, T/C (second compound 10 µM, first compound 0.3 µM): 35.6% | viability, T/C (second compound 10 µM, first compound 0.949 µM): 29.4% | viability, T/C (second compound 10 µM, first compound 3 µM): 16.4%

C[C@@H](NC(=O)c1ncnc(N)c1Cl)c1ncc(C(=O)Nc2cc(C(F)(F)F)c(Cl)cn2)s1 + CC(Nc1ccc2c(c1)OCCn1cc(N3C(=O)OCC3C(F)F)nc1-2)C(N)=O
IC50 (second compound 0.00316 µM): > 10 µM | IC50 (second compound 0.01 µM): > 10 µM | IC50 (second compound 0.0316 µM): > 10 µM | IC50 (second compound 0.1 µM): > 10 µM | IC50 (second compound 0.316 µM): > 10 µM | IC50 (second compound 1 µM): > 10 µM | viability, T/C (second compound 0.00316 µM, first compound 0.0316 µM): 91.6% | viability, T/C (second compound 0.00316 µM, first compound 0.1 µM): 102% | viability, T/C (second compound 0.00316 µM, first compound 0.316 µM): 93.7% | viability, T/C (second compound 0.00316 µM, first compound 1 µM): 102% | viability, T/C (second compound 0.00316 µM, first compound 3.16 µM): 104% | viability, T/C (second compound 0.00316 µM, first compound 10 µM): 108% | viability, T/C (second compound 0.01 µM, first compound 0.0316 µM): 104% | viability, T/C (second compound 0.01 µM, first compound 0.1 µM): 105% | viability, T/C (second compound 0.01 µM, first compound 0.316 µM): 105% | viability, T/C (second compound 0.01 µM, first compound 1 µM): 107% | viability, T/C (second compound 0.01 µM, first compound 3.16 µM): 93.3% | viability, T/C (second compound 0.01 µM, first compound 10 µM): 81% | viability, T/C (second compound 0.0316 µM, first compound 0.0316 µM): 104% | viability, T/C (second compound 0.0316 µM, first compound 0.1 µM): 92.2% | viability, T/C (second compound 0.0316 µM, first compound 0.316 µM): 102% | viability, T/C (second compound 0.0316 µM, first compound 1 µM): 97.3% | viability, T/C (second compound 0.0316 µM, first compound 3.16 µM): 93.3% | viability, T/C (second compound 0.0316 µM, first compound 10 µM): 81.4% | viability, T/C (second compound 0.1 µM, first compound 0.0316 µM): 98.7% | viability, T/C (second compound 0.1 µM, first compound 0.1 µM): 85.2% | viability, T/C (second compound 0.1 µM, first compound 0.316 µM): 93.2% | viability, T/C (second compound 0.1 µM, first compound 1 µM): 101% | viability, T/C (second compound 0.1 µM, first compound 3.16 µM): 101% | viability, T/C (second compound 0.1 µM, first compound 10 µM): 86.2% | viability, T/C (second compound 0.316 µM, first compound 0.0316 µM): 83.3% | viability, T/C (second compound 0.316 µM, first compound 0.1 µM): 83.7% | viability, T/C (second compound 0.316 µM, first compound 0.316 µM): 94.7% | viability, T/C (second compound 0.316 µM, first compound 1 µM): 99.7% | viability, T/C (second compound 0.316 µM, first compound 3.16 µM): 108% | viability, T/C (second compound 0.316 µM, first compound 10 µM): 68.2% | viability, T/C (second compound 1 µM, first compound 0.0316 µM): 97.3% | viability, T/C (second compound 1 µM, first compound 0.1 µM): 89.5% | viability, T/C (second compound 1 µM, first compound 0.316 µM): 89.6% | viability, T/C (second compound 1 µM, first compound 1 µM): 99.5% | viability, T/C (second compound 1 µM, first compound 3.16 µM): 91% | viability, T/C (second compound 1 µM, first compound 10 µM): 74.1%
